SMILES strings stand for the structures.

The source of these data is the METLIN SMRT retention time set (Domingo-Almenara et al. 2019).

The nature of the data set: gradient 5% acetonitrile 3 min, to 50% in 2 min, to 85% in 15 min, held 3 min, 100 µL/min. The settings on record: column: Zorbax Extend-C18 2.1 x 50 mm; eluents: water / acetonitrile, 0.1% formic acid. The essentials:
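Data were gathered over 3 months by HPLC coupled to a quadrupole time-of-flight mass spectrometer, operated in positive and negative ionization mode. Mixtures of ~100 pure standards ran on a Zorbax Extend-C18 column (2.1 × 50 mm, 1.8 μm) at 100 μL/min, with water and acetonitrile each containing 0.1% formic acid and dead and dwell volumes of 40 μL and 900 μL. Retention time was read from adduct peaks picked by computer and checked manually.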
Regarding `CCOC(=O)c1nc(Nc2ccc(S(=O)(=O)Nc3nc(C)cc(C)n3)cc2)c2ccccc2n1`, the RP-LC retention time stood at 692 s. `COc1ccccc1CNS(=O)(=O)c1ccc(F)c(C(=O)Nc2cc(C)ccc2C)c1`: the RP-LC retention time is 967 s.

As for `Cc1c(F)cccc1NC(=O)N1CC(F)(F)C[C@H]1CN1CCCC1`, the RP-LC retention time was found to be 676 s. For `O=C1CCC2(O)[C@@H]3Cc4ccc(O)c5c4[C@]2(CCN3Cc2ccoc2)C1O5` (stereo not given in full) the value was 609 s; for `CCN(CC)CCCNC(=O)CCc1c(-c2ccc(Br)cc2)nc2ccccn12`, 559 s. For `CCOC(=O)Nc1nc2c(s1)CN(S(=O)(=O)c1c(C)noc1C)CC2` the value was 747 s; for `O=C(Cn1nc2c3cc(-c4ccccc4)nn3ccn2c1=O)Nc1ccccc1Cl`, 902 s. For `Cc1ccccc1OCc1nc(-c2cccc(-c3ccnn3C)c2)no1` the value was 1130 s; for `Cc1ccc(NC(=O)C2CC(=O)N(c3ccc4oc(C)nc4c3)C2)cc1` (stereo not given), 749 s; for `CCOc1ccc(C(=O)N2CCC(c3cc(N)on3)CC2)cc1`, 686 s. In turn, `CCc1nc(-c2csc(S(=O)(=O)N3CCC(C(=O)Nc4ccc(C)cc4C)CC3)c2)no1` had an RP-LC retention time of 1090 s. The compound `Cc1ccn2cc(C(=O)NCc3ccccc3)nc2c1` had an RP-LC retention time of 636 s. As for `Cc1ccc(-n2cc3c(N4CCCC(C(=O)NCc5ccc(OC(C)C)cc5)C4)ncnc3n2)cc1` (stereo not given), the RP-LC retention time was determined as 765 s. As to `CCCn1c2ccccc2c2cnn(CC(=O)NCCN3CCCCC3C)c(=O)c21` (stereo not given), the RP-LC retention time is 680 s.

`CC1(C)CC(O)CC(C)(C)N1[O-]` came in with an RP-LC retention time of 578 s. `Cc1c(-c2noc(-c3ccc4c(c3)OCO4)n2)nnn1Cc1ccccc1` had an RP-LC retention time of 1010 s. For `Cc1nc(-c2csc(S(=O)(=O)N3CCCC(C(=O)N4CCCCCC4)C3)c2)no1` (stereo not given) the value was 902 s. `Cc1cc(-c2nnc(-c3ccccc3)o2)c(C)n1CC(=O)Nc1cc(F)cc(F)c1` gave an RP-LC retention time of 747 s. For `CCN(CC)C(=O)c1cnc2snc(C)c2c1N1CCC(C(=O)Nc2ccc(Br)cc2)CC1` the value was 990 s; for `Cc1[nH]c(C(=O)N2CCCC(C(=O)NCCCc3ccccc3)C2)c(C)c1C(=O)OC(C)C` (stereo not given), 892 s. Regarding `CCOc1ccccc1N(C)C(=O)C1CCCN(c2ncnc3c2nc2n3CCCCC2)C1` (stereo not given), the RP-LC retention time is 850 s. The compound `CCc1ccc(S(=O)(=O)N2C[C@@H](F)C[C@H]2C(=O)N2CCOCC2)cc1` showed an RP-LC retention time of 745 s.

Regarding `O=C(O)c1cn(Cc2cccc(F)c2)c(=O)c2ccccc12`, the RP-LC retention time worked out at 822 s. For `Cn1c(N2CCN(C(=O)c3ccccc3Cl)CC2)cc(=O)n(C)c1=O` the value was 622 s. For `CN1CCCN(c2ccc(NC(=O)c3ccc(Br)cc3)c(C(=O)O)c2)CC1` the value was 670 s; for `CCOc1ccc2nc(NC(=O)Cc3csc4nc(-c5ccccc5)cn34)sc2c1`, 874 s; for `CC(=O)Nc1ccc(-c2nc(-c3cccc(-c4ccn[nH]4)c3)no2)cc1`, 790 s. Compound `COc1ccc(CCC(=O)Nc2cc(-c3cccnc3)no2)cc1` gave an RP-LC retention time of 756 s. For `CCOC(=O)c1c(C)[nH]c(C(=O)N2CCC(CC(=O)NC3CC3)CC2)c1C` the value was 654 s; for `CCCCNC(=O)C1CCN(C(=O)Nc2ccc(NC(=O)NC3CCCCC3)cc2)CC1`, 732 s. For `CCOc1ccc(C(=O)N2CCC3(CC2)NC(=O)c2cccc(Cl)c2N3)cc1` the value was 790 s; for `O=C(c1ccc(F)cc1F)N1CCN(c2ccc3nncn3n2)CC1`, 601 s. For `CCN1C(=O)c2cccnc2Sc2cc(NC(=O)c3ccccc3F)ccc21` the value was 834 s.

The compound `Cc1ccc(-c2nccn3cc(C(=O)N4CCN(C5CCCCC5)CC4)nc23)cc1` came in with an RP-LC retention time of 682 s.

The compound `CC1(C(=O)NCc2ccccc2)CN(S(=O)(=O)c2ccccc2)CC(=O)N1c1ccc(Cl)cc1` (stereo not given) displayed an RP-LC retention time of 956 s. Compound `COc1ccc(S(=O)(=O)N2CCC(c3noc(-c4cccc(C)c4)n3)CC2)cc1` came in with an RP-LC retention time of 1170 s. In the case of `CCC1=C(c2ccc(C)cc2)S(=O)(=O)N=C1N1CCC(C(=O)NCc2ccco2)CC1`, the RP-LC retention time amounted to 793 s. With `COc1ccc(-c2nc3cc(C)ccn3c2NC(=O)CC(C)(C)C)cc1`, the RP-LC retention time was determined as 681 s.

Consider `Cc1nc2cc(-c3noc(-c4cncc(Br)c4)n3)ccc2o1`, for which the RP-LC retention time was 1060 s. For `CCN(C(=O)C1CCCN1S(=O)(=O)c1cc2c(cc1Cl)NC(=O)CO2)c1ccccc1` (stereo not given) the value was 836 s. For `COc1cc(OC)c(NC(=O)Cn2nc3n(c2=O)CCCCC3)cc1Cl` the value was 722 s. Take `O=C(NC1CCN(Cc2ccccc2)CC1)C1CCCN(c2ncc(-c3ccc(F)cc3)cn2)C1` (stereo not given): the RP-LC retention time came out at 744 s. For `C=Cc1ccc(COC(=O)C2=CN(CC)S(=O)(=O)N=C2C)cc1` the value was 1030 s; for `CCOC(=O)c1cc(OC)c(OC)cc1NC(=O)c1cc(OC)c(OC)c(OC)c1`, 1030 s; for `CCCS(=O)(=O)N1CCC(c2noc(-c3cccnc3)n2)C1` (stereo not given), 730 s. On to `CCCn1cc(S(=O)(=O)Nc2ccc(F)cc2Cl)c2cccnc21`, for which the RP-LC retention time is 989 s. For `O=C(c1ccc(F)cc1Cl)N1CCN(C(=O)c2nnn3c2COC(c2ccccc2)C3)CC1` (stereo not given) the value was 887 s; for `Cn1cc(CN2CCCC(COc3ccccc3C(=O)NC3CC3)C2)c2ccccc21` (stereo not given), 686 s. For `C=CCN1C(=O)COc2ccc(-c3nc(NC(=O)c4cccc(C)c4)sc3C)cc21` the value was 1110 s; for `CCOc1ccc(-c2noc(CN3C(=O)COc4cc(C(C)(C)C)ccc43)n2)cc1`, 1260 s; for `Cc1cc(C2CCCN2C(=O)Nc2ccc(C)c(F)c2)no1` (stereo not given), 818 s. For `CC(CCNc1ccc(-c2nc(-c3cccc(F)c3)no2)cn1)N1CCCCCC1` (stereo not given) the value was 782 s; for `Cc1noc(-c2cccn2Cc2cccc(Cl)c2)n1`, 1110 s. Turning to `CC1CCN(C(=O)c2nnc(-c3ccc(S(=O)(=O)N4CCC(C)CC4)cc3)o2)CC1`, the RP-LC retention time amounted to 1120 s. For `O=C1CCN(S(=O)(=O)c2cccc3nsnc23)CCCCCCN1` the value was 724 s.

Take `O=C(Cc1c(F)cccc1Cl)Nc1nc(-c2ccccc2)cs1`: the RP-LC retention time amounted to 1040 s. For `O=C(c1cn2ccccc2n1)N1CCN(c2ccccc2Cl)CC1` the value was 854 s; for `CCOc1nc2ccccc2nc1N1CCCC(C(=O)NCc2cccnc2)C1` (stereo not given), 684 s; for `CC(C)NC(=O)CN1C(=O)C2CCCCN2c2ccc(S(=O)(=O)N3CCCC3)cc21` (stereo not given), 810 s. For `Cc1noc(C2CCCCN2CC(=O)Nc2nccs2)n1` (stereo not given) the value was 675 s. For `CCCCN(C)C(=O)C1CCN(S(=O)(=O)c2ccc3c(c2)CCCC(=O)N3)CC1` the value was 719 s.

`COc1ccc(NC(=O)N2CCN(CCn3c(C(F)(F)F)nc4cccnc43)CC2)cc1OC` gave an RP-LC retention time of 611 s. For `O=C(Cn1nc2n(c1=O)CCCC2)N1CCN(c2ccccc2)CC1` the value was 638 s; for `CCc1nc(N)n(CC(=O)NCc2ccccc2)c(=O)c1C`, 623 s. For `O=c1nc(SCc2csc(-c3ccccc3)n2)c2c(n1CCCO)CCC2`, the RP-LC retention time was 736 s. The compound `O=C(c1ccsc1)N1CCN(c2ccccn2)CC1` gave an RP-LC retention time of 521 s. For `CC(=O)c1ccc(NC(=O)NC2CCN(c3nc4ccccc4n(C)c3=O)CC2)cc1` the value was 748 s; for `O=C(NC(c1ccccc1)c1nnc(N2CCCC2)o1)c1cccc(Cl)c1` (stereo not given), 867 s; for `CN(C)c1nccnc1OC1CCN(C(=O)c2ccc(Cl)cc2)C1` (stereo not given), 783 s. As to `COc1ccc(CNC(=O)c2ccc3c(c2)NC(=O)C2CCCCN32)cc1OC` (stereo not given), the RP-LC retention time worked out at 719 s.

On to `COc1ccc(-c2nnc(N3CCC(C(=O)NCc4ccco4)CC3)o2)cc1`, for which the RP-LC retention time worked out at 738 s. The compound `CCc1nnc2ccc(-c3noc(CNC(=O)c4ccccc4)n3)cn12` returned an RP-LC retention time of 651 s.

Take `CCCCC(Sc1nc(=O)[nH]c(C)c1C(=O)OCC)C(=O)O` (stereo not given): the RP-LC retention time is 663 s. Consider `CCc1ccc(NC(=O)c2cn(CC)c3ncccc23)cc1`, for which the RP-LC retention time is 962 s.

`CCOC(=O)c1c(C)n(CCNC(C)=O)c2cc(Br)c(OC)cc12` registered an RP-LC retention time of 706 s. `Cc1cc(N2CCN(C(=O)c3cc4ccccc4o3)CC2)ncn1` showed an RP-LC retention time of 559 s. `O=C1NCCCCCN(C(=O)Nc2ccccc2)[C@H]2CCCC[C@@H]12` displayed an RP-LC retention time of 577 s. For the compound `CCOc1ccc(S(=O)(=O)N(C)C)c2ccccc12`, the RP-LC retention time is 950 s.

`COc1ccc(NC(=O)Cn2c(N3CCCC3)nc(C)cc2=O)c(OC)c1` yielded an RP-LC retention time of 626 s. For `O=C(CN1C(=O)C2CCCCN2c2ccc(S(=O)(=O)N3CCCC3)cc21)NCCN1CCCC1` (stereo not given) the value was 636 s.
